In PubChem BioAssay AID1918953 (Molecular Pharmacology Branch, DTP, NCI, 2023):
Values joined by “and” are separate entries in the source; they are usually repeats but may differ in a detail not shown here. Identical values can stand only once. Each block holds one compound with its values, some of them ahead of it.

Tested on: MDA-MB-231 complex spheroid viability
Experiment: Anticancer human tumor MDA-MB-231/ATCC cell line growth inhibition;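 also: drug exposure lasted 7 days starting on day 3 of spheroid growth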
Conditions: for viability, T/C: stronger effect = lower value
In short: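 Complex spheroids of tumor cells with HUVEC and human MSCs, exposed to iadademstat combined with other agents. Each agent tested in half-log steps from near clinical Cmax (else 10 microM top), DMSO ≤0.25%.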

[1] = curve of first compound, second compound 0.1 µM
[2] = curve of first compound, second compound 0.316 µM
[3] = curve of first compound, second compound 1 µM
[4] = curve of first compound, second compound 3.16 µM
[5] = curve of first compound, second compound 10 µM

IC50 (curve of compound): 181 nM and 31.7 nM
SMILES: COc1cc(Nc2ncc3c(n2)-c2ccc(Cl)cc2C(c2c(F)cccc2OC)=NC3)ccc1C(=O)O
viability, T/C (compound 0.00316 µM): 78.5% and 52.8% | viability, T/C (compound 0.01 µM): 60.9% and 55.1% | viability, T/C (compound 0.0316 µM): 56.1% and 50.4% | viability, T/C (compound 0.1 µM): 57% and 42.6% | viability, T/C (compound 0.316 µM): 50.3% and 38.8% | viability, T/C (compound 1 µM): 41.5% and 23.2%

SMILES: O=C(C=Cc1cccc(S(=O)(=O)Nc2ccccc2)c1)NO + NC1CCC(NC2CC2c2ccccc2)CC1
IC50 [1]: 113 nM | IC50 [2]: 106 nM | IC50 [3]: 66.2 nM | IC50 [4]: 21.9 nM | IC50 [5]: < 9.49 nM | viability, T/C (second compound 0.1 µM, first compound 0.00949 µM): 90.7% | viability, T/C (second compound 0.1 µM, first compound 0.03 µM): 75.7% | viability, T/C (second compound 0.1 µM, first compound 0.0949 µM): 53% | viability, T/C (second compound 0.1 µM, first compound 0.3 µM): 30.5% | viability, T/C (second compound 0.1 µM, first compound 0.949 µM): 13.7% | viability, T/C (second compound 0.1 µM, first compound 3 µM): 0.59% | viability, T/C (second compound 0.316 µM, first compound 0.00949 µM): 86.3% | viability, T/C (second compound 0.316 µM, first compound 0.03 µM): 69.6% | viability, T/C (second compound 0.316 µM, first compound 0.0949 µM): 53.5% | viability, T/C (second compound 0.316 µM, first compound 0.3 µM): 30.8% | viability, T/C (second compound 0.316 µM, first compound 0.949 µM): 14.1% | viability, T/C (second compound 0.316 µM, first compound 3 µM): 1.38% | viability, T/C (second compound 1 µM, first compound 0.00949 µM): 79.1% | viability, T/C (second compound 1 µM, first compound 0.03 µM): 61.8% | viability, T/C (second compound 1 µM, first compound 0.0949 µM): 43.6% | viability, T/C (second compound 1 µM, first compound 0.3 µM): 30.3% | viability, T/C (second compound 1 µM, first compound 0.949 µM): 11.3% | viability, T/C (second compound 1 µM, first compound 3 µM): 0.68% | viability, T/C (second compound 3.16 µM, first compound 0.00949 µM): 61.4% | viability, T/C (second compound 3.16 µM, first compound 0.03 µM): 45.3% | viability, T/C (second compound 3.16 µM, first compound 0.0949 µM): 31% | viability, T/C (second compound 3.16 µM, first compound 0.3 µM): 20.8% | viability, T/C (second compound 3.16 µM, first compound 0.949 µM): 6.19% | viability, T/C (second compound 3.16 µM, first compound 3 µM): 0.34% | viability, T/C (second compound 10 µM, first compound 0.00949 µM): 39.8% | viability, T/C (second compound 10 µM, first compound 0.03 µM): 29.8% | viability, T/C (second compound 10 µM, first compound 0.0949 µM): 17.9% | viability, T/C (second compound 10 µM, first compound 0.3 µM): 13.9% | viability, T/C (second compound 10 µM, first compound 0.949 µM): 3.39% | viability, T/C (second compound 10 µM, first compound 3 µM): 0.33%

SMILES: O=C(c1cc(Cc2n[nH]c(=O)c3ccccc23)ccc1F)N1CCN(C(=O)C2CC2)CC1 + NC1CC1c1ccc(-c2cccc(O)c2)cc1
IC50 [1]: 1730 nM | IC50 [2]: 522 nM | IC50 [3]: 378 nM | IC50 [4]: 349 nM | IC50 [5]: < 31.6 nM | viability, T/C (second compound 0.1 µM, first compound 0.0316 µM): 71.6% | viability, T/C (second compound 0.1 µM, first compound 0.1 µM): 64.2% | viability, T/C (second compound 0.1 µM, first compound 0.316 µM): 67% | viability, T/C (second compound 0.1 µM, first compound 1 µM): 56.1% | viability, T/C (second compound 0.1 µM, first compound 3.16 µM): 42.7% | viability, T/C (second compound 0.1 µM, first compound 10 µM): 27.1% | viability, T/C (second compound 0.316 µM, first compound 0.0316 µM): 65.5% | viability, T/C (second compound 0.316 µM, first compound 0.1 µM): 60.6% | viability, T/C (second compound 0.316 µM, first compound 0.316 µM): 54.8% | viability, T/C (second compound 0.316 µM, first compound 1 µM): 44.5% | viability, T/C (second compound 0.316 µM, first compound 3.16 µM): 32.3% | viability, T/C (second compound 0.316 µM, first compound 10 µM): 24.8% | viability, T/C (second compound 1 µM, first compound 0.0316 µM): 59.6% | viability, T/C (second compound 1 µM, first compound 0.1 µM): 56.9% | viability, T/C (second compound 1 µM, first compound 0.316 µM): 50.7% | viability, T/C (second compound 1 µM, first compound 1 µM): 44.3% | viability, T/C (second compound 1 µM, first compound 3.16 µM): 32% | viability, T/C (second compound 1 µM, first compound 10 µM): 21.1% | viability, T/C (second compound 3.16 µM, first compound 0.0316 µM): 65.3% | viability, T/C (second compound 3.16 µM, first compound 0.1 µM): 54.1% | viability, T/C (second compound 3.16 µM, first compound 0.316 µM): 50.6% | viability, T/C (second compound 3.16 µM, first compound 1 µM): 45.1% | viability, T/C (second compound 3.16 µM, first compound 3.16 µM): 33% | viability, T/C (second compound 3.16 µM, first compound 10 µM): 22.2% | viability, T/C (second compound 10 µM, first compound 0.0316 µM): 45.4% | viability, T/C (second compound 10 µM, first compound 0.1 µM): 38.2% | viability, T/C (second compound 10 µM, first compound 0.316 µM): 36.4% | viability, T/C (second compound 10 µM, first compound 1 µM): 37.2% | viability, T/C (second compound 10 µM, first compound 3.16 µM): 23.3% | viability, T/C (second compound 10 µM, first compound 10 µM): 19.9%

IC50 (curve of compound): < 0.949 nM
SMILES: CCc1c2c(nc3ccc(O)cc13)-c1cc3c(c(=O)n1C2)COC(=O)[C@]3(O)CC
viability, T/C (compound 0.000949 µM): 13.4% and 18% | viability, T/C (compound 0.003 µM): 8.18% and 14.8% | viability, T/C (compound 0.00949 µM): 7.45% and 15.4% | viability, T/C (compound 0.03 µM): 9.98% and 5.59% | viability, T/C (compound 0.0949 µM): 5.58% and 0.92% | viability, T/C (compound 0.3 µM): 2.32% and 0.78%
